This is an account of results in ChEMBL document CHEMBL3044933, “Synthesis and insect antifeedant activity of aurones against Spodoptera litura larvae” (J Agric Food Chem, 2007).

Data set [1] has as its system Spodoptera litura. Description: Antifeedant activity against Spodoptera litura in compound treated cork borer from fresh sweet potato leaves assessed as leaf disk consumed at 26.5 degC. Type of data set: functional.
Data set [2] relates to Spodoptera litura. The data set can be described thus: Antifeedant activity against Spodoptera litura in compound treated cork borer from fresh sweet potato leaves assessed as leaf disk consumed at 0.33 mg/cm2 at 26.5 degC. Type of data set: functional.
Data set [3] is described as follows: Lipophilicity, log k of the compound from retention time in ODS HPLC.

Activity calls are given as the source filed them. The rule behind the calls is not given here.

With `C/C=C(/C)C(=O)O[C@H]1C[C@@H](OC(C)=O)[C@@]2(C)CO[C@H]3[C@H]4O[C@@H]5C[C@@H](c6ccoc6)C(C)=C5[C@@]4(C)[C@H](CC(=O)OC)[C@]1(C)[C@@H]32` [SALANNIN], in the data set with Spodoptera litura [1], the ED50 was determined as 0.066 umol/cm2 and the pED50 is 7.18.
As for `O=C1/C(=C/c2ccc(O)c(O)c2)Oc2ccccc21`, the Activity with Spodoptera litura [2] is given as less than 40%. In the data set on Spodoptera litura [1], the ED50 entry is “inactive”.
For `O=C1COc2ccccc21` [3-COUMARANONE], in that order: less than 40% and “inactive”.
Turning to `COc1ccc(/C=C2\Oc3ccccc3C2=O)cc1` [4'-METHOXY-AURONE], the log k in data set [3] came out at 0.689. In the data set with Spodoptera litura [1], the ED50 is recorded as 2.03 umol/cm2 and the pED50 was 5.69.
Consider `COc1cc(/C=C2\Oc3ccccc3C2=O)cc(OC)c1OC`, for which the Activity in the data set with Spodoptera litura [2] is less than 40%. Besides, in the data set on Spodoptera litura [1], the ED50 entry was “inactive”.
In the case of `COc1cc(OC)c2c(c1)O/C(=C\c1ccccc1)C2=O`, in data set [3], the log k stood at 0.56. For the same molecule, in the data set with Spodoptera litura [1], the ED50 was found to be 0.85 umol/cm2 and the pED50 was found to be 6.07.
For the molecule `Cc1cc(C)c2c(c1)OCC2=O` [4,6-DIMETHYLCOUMARANONE], in the data set on Spodoptera litura [1], the ED50 is given as 0.68 umol/cm2 and the pED50 amounted to 6.17.
In the case of `O=C1/C(=C/c2cccc(Cl)c2)Oc2ccccc21`, the Activity with Spodoptera litura [2] was less than 40%. In the data set on Spodoptera litura [1], the ED50 entry was “inactive”.
With `O=C1/C(=C/c2cccc(Br)c2)Oc2ccccc21`, in data set [3], the log k was determined as 1.05. In the data set with Spodoptera litura [1], the ED50 worked out at 4.21 umol/cm2 and the pED50 was 5.38.
As to `COc1cc(OC)c2c(c1)O/C(=C\c1ccc(C)c(C)c1)C2=O`, the Activity in the data set with Spodoptera litura [2] was less than 40%. Also, in the data set with Spodoptera litura [1], the ED50 entry was “inactive”.
In the case of `Cc1cc(C)c2c(c1)O/C(=C\c1ccc(C)c(C)c1)C2=O`, the Activity in the data set with Spodoptera litura [2] is less than 40%. For the same molecule, the ED50 result in the data set on Spodoptera litura [1] is “inactive”.
Consider `COc1ccccc1/C=C1\Oc2ccccc2C1=O` [(Z)-2'-METHOXYAURONE], for which, in the data set on Spodoptera litura [2], the Activity is on record as less than 40%. In addition, the ED50 entry in the data set with Spodoptera litura [1] was “inactive”.
For the molecule `COc1cc2c(c(OC)c1OC)C(=O)CO2` [4,5,6-TRIMETHOXYCOUMARANONE], in the data set with Spodoptera litura [1], the ED50 came out at 0.41 umol/cm2 and the pED50 came to 6.39.
`COc1ccc(/C=C2\Oc3cc(C)cc(C)c3C2=O)cc1OC`: in the data set on Spodoptera litura [1], the ED50 is recorded as 1.02 umol/cm2 and the pED50 is 5.99.
In data set [3], `COc1cc(/C=C2\Oc3ccccc3C2=O)cc(OC)c1` came in with a log k of 0.741. Besides, in the data set on Spodoptera litura [1], the ED50 worked out at 3.45 umol/cm2 and the pED50 was 5.46.
In data set [3], `COc1ccc(/C=C2\Oc3ccccc3C2=O)cc1OC` [3',4'-DIMETHOXY-AURONE] yielded a log k of 0.741. Also, in the data set with Spodoptera litura [1], the ED50 is 0.86 umol/cm2 and the pED50 was 6.07.
`COc1cc(OC)c2c(c1)O/C(=C\c1ccc(OC)c(OC)c1)C2=O` [4,6,3',4'-TETRAMETHOXYAURONE] registered a log k in data set [3] of 0.277. In the data set with Spodoptera litura [1], the ED50 turned out to be 0.12 umol/cm2 and the pED50 stood at 6.92.
As for `COc1cc(OC)c2c(c1)OCC2=O` [4,6-DIMETHOXYCOUMARANONE], in the data set with Spodoptera litura [1], the ED50 came to 3.87 umol/cm2 and the pED50 amounted to 5.41.
Take `COc1cccc(/C=C2\Oc3ccccc3C2=O)c1` [3'-METHOXY-AURONE]: the log k in data set [3] was determined as 0.737. Further, in the data set with Spodoptera litura [1], the ED50 was found to be 1.01 umol/cm2 and the pED50 is 6.
As to `COc1cc(/C=C2\Oc3ccccc3C2=O)ccc1O`, in the data set with Spodoptera litura [2], the Activity is less than 40%. In addition, in the data set with Spodoptera litura [1], the ED50 entry is “inactive”.
As for `O=C1/C(=C/c2ccccc2)Oc2ccccc21` [(Z)-AURONE], in the data set on Spodoptera litura [2], the Activity is recorded as less than 40%. The ED50 entry with Spodoptera litura [1] is “inactive”.
As for `COc1ccc(/C=C2\Oc3cc(OC)c(OC)c(OC)c3C2=O)cc1OC`, the Activity in the data set on Spodoptera litura [2] is less than 40%. The ED50 entry in the data set with Spodoptera litura [1] is “inactive”.
In the case of `CCOc1cc(/C=C2\Oc3ccccc3C2=O)ccc1O`, the log k in data set [3] is 0.382. For the same molecule, in the data set on Spodoptera litura [1], the ED50 was 1.96 umol/cm2 and the pED50 was 5.71.
For `O=C1/C(=C/c2ccc3c(c2)OCO3)Oc2ccccc21`, in that order: 0.624, 1.61 umol/cm2 and 5.79.
